Experimental data as given in PubChem BioAssay AID1963433 (Molecular Pharmacology Branch, DTP, NCI, 2024).

Test system: 772245-204-R-J1-PDC complex spheroid growth
Assay: Anticancer human tumor 772245-204-R-J1-PDC patient-derived rhabdomyosarcoma cell line growth inhibition [Asc]
Details: for IC50: curve of first compound; for viability, T/C: stronger effect = lower value
Method in brief: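 Complex solid-tumor spheroids incorporating human endothelial and mesenchymal stem cells received single agents or combinations over half-log dilution ranges anchored to clinical Cmax.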
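Note: compound exposure lasted seven days.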
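Throughout, for viability, T/C: 100% = DMSO vehicle control viability.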

With `COc1c(OCCCN2CCOCC2)ccc2c3n(c(=NC(=O)c4cnc(N)nc4)nc12)CCN3` + Cc1c(S(C)(=O)=O)c(-c2cc(F)cc(N3CCN(c4ccc(NS(=O)(=O)c5ccc(NC(CCN6CCC(C(=O)OCCCP(=O)(O)O)CC6)CSc6ccccc6)c(S(=O)(=O)C(F)(F)F)c5)cc4)CC3)c2)c(-c2ccc(Cl)cc2)n1C(C)C the IC50 (second compound 0.1 µM) was 57.5 nM, the IC50 (second compound 0.316 µM) was 48.5 nM and the IC50 (second compound 1 µM) was 21.2 nM. The IC50 (second compound 3.16 µM) was less than 3.16 nM, the IC50 (second compound 10 µM) was less than 3.16 nM and the viability, T/C (second compound 0.1 µM, first compound 0.00316 µM) was 82.5%. It also gave a viability, T/C (second compound 0.1 µM, first compound 0.01 µM) of 73.1%, a viability, T/C (second compound 0.1 µM, first compound 0.0316 µM) of 55.7% and a viability, T/C (second compound 0.1 µM, first compound 0.1 µM) of 45.2%. For the same molecule, the viability, T/C (second compound 0.1 µM, first compound 0.316 µM) was 27.1%, the viability, T/C (second compound 0.1 µM, first compound 1 µM) was 18.8% and the viability, T/C (second compound 0.316 µM, first compound 0.00316 µM) was 64.2%. For the same molecule, the viability, T/C (second compound 0.316 µM, first compound 0.01 µM) was 74.5%, the viability, T/C (second compound 0.316 µM, first compound 0.0316 µM) was 55.4% and the viability, T/C (second compound 0.316 µM, first compound 0.1 µM) was 36.8%. For the same molecule, the viability, T/C (second compound 0.316 µM, first compound 0.316 µM) was 18.4%, the viability, T/C (second compound 0.316 µM, first compound 1 µM) was 11.6% and the viability, T/C (second compound 1 µM, first compound 0.00316 µM) was 65.4%. The viability, T/C (second compound 1 µM, first compound 0.01 µM) was 59.9%, the viability, T/C (second compound 1 µM, first compound 0.0316 µM) was 44.8% and the viability, T/C (second compound 1 µM, first compound 0.1 µM) was 24.9%. For the same molecule, the viability, T/C (second compound 1 µM, first compound 0.316 µM) was 12.7%, the viability, T/C (second compound 1 µM, first compound 1 µM) was 6.44% and the viability, T/C (second compound 3.16 µM, first compound 0.00316 µM) was 43.6%. The viability, T/C (second compound 3.16 µM, first compound 0.01 µM) was 56.1%, the viability, T/C (second compound 3.16 µM, first compound 0.0316 µM) was 29.4% and the viability, T/C (second compound 3.16 µM, first compound 0.1 µM) was 19.3%. The viability, T/C (second compound 3.16 µM, first compound 0.316 µM) was 11.5%, the viability, T/C (second compound 3.16 µM, first compound 1 µM) was 3.48% and the viability, T/C (second compound 10 µM, first compound 0.00316 µM) was 49.3%. It also gave a viability, T/C (second compound 10 µM, first compound 0.01 µM) of 41.9%, a viability, T/C (second compound 10 µM, first compound 0.0316 µM) of 39.1% and a viability, T/C (second compound 10 µM, first compound 0.1 µM) of 18.2%. For the same molecule, the viability, T/C (second compound 10 µM, first compound 0.316 µM) was 6.81% and the viability, T/C (second compound 10 µM, first compound 1 µM) was 3.06%.
